Reference: patent US9049814B2, “Coated seeds and methods of making coated seeds” (VamTech, LLC, priority 2007, dated 2015)

Columns and labels:
[1] = tested on: VAM fungi (Glomus etunicatum, Glomus clarum, Entrophospora columbiana, Glomus intraradices) on corn roots; assay: VAM colonization of corn roots from Myconate over-treated seed (2007); type: in vivo, Zea mays L.; details: for % Root colonization by VAM: Mean (%) / % Root colonization by VAM in 5 replicates: A / % Root colonization by VAM in 5 replicates: B / % Root colonization by VAM in 5 replicates: C / % Root colonization by VAM in 5 replicates: D / % Root colonization by VAM in 5 replicates: E: variety BH, fungicide/insecticide pre-treated seed; for % Root colonization by VAM: Mean (%): mean of 5 replicates; for % Root colonization by VAM in 5 replicates: A: replicate A; for % Root colonization by VAM in 5 replicates: B: replicate B; for % Root colonization by VAM in 5 replicates: C: replicate C; for % Root colonization by VAM in 5 replicates: D: replicate D; for % Root colonization by VAM in 5 replicates: E: replicate E
Procedure: Methods: This study was conducted between February-April 2007 in a greenhouse at the Formosa Agricultural and Environmental Research Center using hybrid corn plants (Zea mays L.) var. Beck's Hybrids 5959 (HB) and Dow/Mycogen 2D675 (PG). The hybrid corn seed was purchased from commercial sources and was pre-treated with one of two fungicidal/insecticidal seed treatments. Variety HB was commercially treated with Beck's “SureGro” containing fludioxonil and mefenoxam fungicides; together with Agriliance Actellic 5E (a.i. pirimiphos-methyl) insecticide, according to label directions. Variety PG was commercially treated with Syngenta “Cruiser Extreme” (a.i. fludioxonil, mefenoxam and azoxystrobin fungicides plus thiamethoxam insecticide) according to label directions.
Subsequently, the corn seed was over-treated with one of two formulations of Myconate. One formulation contained 98% potassium formononetinate (kf) together with Polykote polymer; and the other, 100% acid formononetin (afP) together with Polykote polymer, wetting agent, colorant, and preservative. The kf treatments, 1 through 6 in Table 6, contained varying amounts of potassium formononetinate and were applied using a lab bench apparatus. The afP treatments, 18 and 19, were applied using commercial equipment. Treated HB seed received the kf treatment of potassium formononetinate at rates of 0.2 to 5.6 mg/seed. Treated PG seed received the afP treatment of formononetin at single rate of 0.8 mg/seed. The concentration of formononetin per seed was calculated by gravimetric measurement of the coating applied to the seed.
The controls for the kf treatments involved two seed samples, 7 and 8, both untreated with kf and one of these was also untreated with VAM spores. The control for the afP treatment was treated with afP but was not treated with VAM. The various treatments, including the addition of VAM spores to the growing medium prior to sowing for VAM development studies are described schematically in Table 6.
The colonization rate of VAM fungi on corn roots was determined using methods commonly used to quantify vesicular arbuscular mycorrhiza (Kormanik PP and AC McGraw (1984) Quantification of vesicular-arbuscular mycorrhizae in plant roots. In N. C. Schenck (ed.) Methods and Principles of Mycorrhizal Research. American Phytopathological Society, St. Paul, Minn.; Phillips J M and D S Hayman (1970) Improved procedures for clearing roots and staining parasitic and vesicular-arbuscular mycorrhizal fungi for rapid assessment of infection. Trans. Br. Mycol. Soc. 55:158-160; Read D J, H K Koncheki and J Hodgson (1976) Vesicular-arbuscular mycorrhiza in natural vegetation systems. New Phytol. 77:641-653). Speedling tray cells (30 ml volume) were partially (⅔) filled with autoclaved Miraco-III potting mix and inoculated with 95 spores of VAM cocktail (Lot No. 12-14-04). The VAM cocktail contained spores of Glomus etunicatum, Glomus clarum, Entrophospora columbiana and Glomus intraradices. The cocktail was prepared by mixing dry-sieved (179 microns) spore preparations of G. entunicatum, G. clarum and E. columbiana with dry root pieces containing the intraradical spores of G. intraradices. Each fungal species was individually produced and processed using a pot culture technique. The cells were then filled with Miraco-III mix. After sowing, (one seed per cell, 9-20 seed per treatment), the trays were incubated under continuous light at room temperature. Ten days after sowing, five seedlings from each experimental treatment and 10 from two untreated controls (Treatments 7 and 8) were randomly selected and transplanted to 1-liter cups containing a sand-based medium. The cups were incubated in a greenhouse and a low phosphorus (P) nutrient solution (1.175 ppm) was applied to all treatments 1-2 times per week as needed to maintain proper soil moisture. […]

[2] = tested on: VAM fungi (4 species VAM fungal cocktail) on corn plants; assay: Percent VAM development on 6-week-old corn plants from coated seed (2006); type: in vivo; details: for % VAM: 6-week-old corn plants, 95 VAM spores, low P; for % VAM, averaged: average across treatments, base VAM level 54% without treatment
Text: Example 1 describes experimental studies carried out, in spring and summer of 2006 to evaluate the effects of different commercial fungicide seed coatings on VAM development in germinated corn seedlings in the presence and absence of alkali formononetinate. All corn seed coatings were done by Sub-Sahara International, Inc. (now owned by Becker Underwood Inc.) using standard coating procedures. The treater used was an RP-14 rotary seed coating machine manufactured by Sedpell in Canada. Successive applications were made with the fungicides being applied first according to the label instructions; then, when the seeds were dry they were over-coated with the alkali (potassium) formononetinate.
Fungicides were applied as a high viscosity, liquid suspension formulations according to the use directions on the respective labels.
The alkali formononetinate was dissolved in water and Polykote added according to the following ratios by weight: water—70 parts; alkali formononetinate—45 parts; Polykote—20 parts.
Seed germination and VAM development tests were carried out in a greenhouse at the Formosa Agricultural and Environmental Research Center, LaWard, Tex.
Percent VAM development was determined, within 3 weeks of treatment, on five, 6-week-old corn plants (from seeding) per treatment planted in sterile potting soil containing 95 spores of a 4 species VAM fungal cocktail at low P concentration. Originally 10 plants per treatment were installed in 30 ml Seedling® cells and after 10 days, 5 were transplanted into 1 liter containers.

[3] = tested on: Glomus mosseae; details: cited from earlier work
[4] = tested on: mycorrhizal colonization of Leucaena leucocephala; details: in vivo; cited from earlier work
[5] = tested on: VAM-infected roots of oats; details: thereby decreasing phosphorus uptake; cited from earlier work

SMILES: COc1ccc(-c2coc3cc([O-])ccc3c2=O)cc1.[K+] [Myconate kf, potassium formononetinate]
- increase of VAM colonization ([1]; 1.6 mg/seed): approximately 30%
- % Root colonization by VAM: Mean (%) ([1]; Treatment 1: 0.2 mg/seed kf): 41.0%
- % Root colonization by VAM in 5 replicates: A ([1]; Treatment 1: 0.2 mg/seed kf): 40%
- % Root colonization by VAM in 5 replicates: B ([1]; Treatment 1: 0.2 mg/seed kf): 47%
- % Root colonization by VAM in 5 replicates: C ([1]; Treatment 1: 0.2 mg/seed kf): 41%
- % Root colonization by VAM in 5 replicates: D ([1]; Treatment 1: 0.2 mg/seed kf): 39%
- % Root colonization by VAM in 5 replicates: E ([1]; Treatment 1: 0.2 mg/seed kf): 38%
- % Root colonization by VAM: Mean (%) ([1]; Treatment 2: 0.4 mg/seed kf): 43.6%
- % Root colonization by VAM in 5 replicates: A ([1]; Treatment 2: 0.4 mg/seed kf): 44%
- % Root colonization by VAM in 5 replicates: B ([1]; Treatment 2: 0.4 mg/seed kf): 48%
- % Root colonization by VAM in 5 replicates: C ([1]; Treatment 2: 0.4 mg/seed kf): 45%
- % Root colonization by VAM in 5 replicates: D ([1]; Treatment 2: 0.4 mg/seed kf): 40%
- % Root colonization by VAM in 5 replicates: E ([1]; Treatment 2: 0.4 mg/seed kf): 41%
- % Root colonization by VAM: Mean (%) ([1]; Treatment 3: 0.8 mg/seed kf): 43.8%
- % Root colonization by VAM in 5 replicates: A ([1]; Treatment 3: 0.8 mg/seed kf): 45%
- % Root colonization by VAM in 5 replicates: B ([1]; Treatment 3: 0.8 mg/seed kf): 42%
- % Root colonization by VAM in 5 replicates: C ([1]; Treatment 3: 0.8 mg/seed kf): 47%
- % Root colonization by VAM in 5 replicates: D ([1]; Treatment 3: 0.8 mg/seed kf): 45%
- % Root colonization by VAM in 5 replicates: E ([1]; Treatment 3: 0.8 mg/seed kf): 40%
- % Root colonization by VAM: Mean (%) ([1]; Treatment 4: 1.6 mg/seed kf): 32.0%
- % Root colonization by VAM in 5 replicates: A ([1]; Treatment 4: 1.6 mg/seed kf): 30%
- % Root colonization by VAM in 5 replicates: B ([1]; Treatment 4: 1.6 mg/seed kf): 39%
- % Root colonization by VAM in 5 replicates: C ([1]; Treatment 4: 1.6 mg/seed kf): 28%
- % Root colonization by VAM in 5 replicates: D ([1]; Treatment 4: 1.6 mg/seed kf): 35%
- % Root colonization by VAM in 5 replicates: E ([1]; Treatment 4: 1.6 mg/seed kf): 28%
- % Root colonization by VAM: Mean (%) ([1]; Treatment 5: 4.0 mg/seed kf): 25.0%
- % Root colonization by VAM in 5 replicates: A ([1]; Treatment 5: 4.0 mg/seed kf): 27%
- % Root colonization by VAM in 5 replicates: B ([1]; Treatment 5: 4.0 mg/seed kf): 21%
- % Root colonization by VAM in 5 replicates: C ([1]; Treatment 5: 4.0 mg/seed kf): 31%
- % Root colonization by VAM in 5 replicates: D ([1]; Treatment 5: 4.0 mg/seed kf): 24%
- % Root colonization by VAM in 5 replicates: E ([1]; Treatment 5: 4.0 mg/seed kf): 22%
- % Root colonization by VAM: Mean (%) ([1]; Treatment 6: 5.6 mg/seed kf): 18.2%
- % Root colonization by VAM in 5 replicates: A ([1]; Treatment 6: 5.6 mg/seed kf): 19%
- % Root colonization by VAM in 5 replicates: B ([1]; Treatment 6: 5.6 mg/seed kf): 12%
- % Root colonization by VAM in 5 replicates: C ([1]; Treatment 6: 5.6 mg/seed kf): 25%
- % Root colonization by VAM in 5 replicates: D ([1]; Treatment 6: 5.6 mg/seed kf): 18%
- % Root colonization by VAM in 5 replicates: E ([1]; Treatment 6: 5.6 mg/seed kf): 17%
- effect on VAM colonization ([1]; at or above 4.0 mg/seed): decreased VAM colonization
- increase of VAM colonization ([1]; commercial use rate (0.8 mg/seed), over the untreated control (24.2% VAM colonization)): 81%
- % VAM ([2]; 0.5 mg alkali formononetinate/seed over-coated on the named fungicide (or none)): 61%
- % VAM, averaged ([2]; 0.5 mg alkali formononetinate/seed): 67%
- % VAM ([2]; 1.0 mg alkali formononetinate/seed over-coated on the named fungicide (or none)): 66%
- % VAM, averaged ([2]; 1.0 mg alkali formononetinate/seed): 73%

SMILES: CCCCNC(=O)n1c(NC(=O)OC)nc2ccccc21 [benomyl]
- Growth of the vesicular arbuscular mycorrhizal fungus Glomus mosseae [3]: affected

SMILES: N#Cc1c(Cl)c(Cl)c(Cl)c(C#N)c1Cl [chlorothalonil]
- mycorrhizal colonization, phosphorus concentration, and dry matter yields of Leucaena leucocephala [4]: decrease

SMILES: O=[N+]([O-])c1c(Cl)c(Cl)c(Cl)c(Cl)c1Cl [PCNB, pentachloronitrobenzene]
- VAM-infected root length of oats [5]: decreased
